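Method: 48-hour compound exposure of cells in 96-well plates, five concentrations, linear interpolation of endpoints. GI50 marks 50% less growth. Definition used: TGI = concentration required for complete inhibition of growth.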
Key:
Assay in all cases: NCI tumour cell line growth inhibition, 48 h
[1] = tested on: HL-60(TB) leukemia
[2] = tested on: HT29 colon
[3] = tested on: KM12 colon
[4] = tested on: MALME-3M melanoma
[5] = tested on: RPMI-8226 leukemia
[6] = tested on: RXF 393 renal
[7] = tested on: SF-295 CNS
[8] = tested on: SK-MEL-2 melanoma
[9] = tested on: SN12C renal
[10] = tested on: SNB-19 CNS

| Compound | TGI [1] [µM] | TGI [2] [µM] | TGI [3] [µM] | TGI [4] [µM] | TGI [5] [µM] | TGI [6] [µM] | TGI [7] [µM] | TGI [8] [µM] | TGI [9] [µM] | TGI [10] [µM] | GI50 [7] [µM] | GI50 [1] [µM] | GI50 [2] [µM] | GI50 [3] [µM] | GI50 [4] [µM] | GI50 [5] [µM] | GI50 [6] [µM] | GI50 [8] [µM] | GI50 [9] [µM] | GI50 [10] [µM] |
| --- | --- | --- | --- | --- | --- | --- | --- | --- | --- | --- | --- | --- | --- | --- | --- | --- | --- | --- | --- | --- |
| COC[C@@H](N=CN1CCc2cc(OC)c(OC)cc2[C@@H]1C)C(C)(C)C | > 100 | > 100 | > 100 | > 100 | > 100 | > 100 | > 100 | > 100 | > 100 | > 100 | – | – | – | – | – | – | – | – | – | – |
| NC1CCCCC1.[O]=[Ge].[O]=[Ge].[O]=[Ge][OH].[O]=[Ge][OH] | > 100 | > 100 | > 100 | > 100 | > 100 | > 100 | > 100 | > 100 | > 100 | > 100 | > 100 | – | – | – | – | – | – | – | – | – |
| COc1cc2c(c(OC)c1OC)-c1ccc(N)c(=O)cc1[C@@H](NC(C)=O)CC2 | – | 0.0688 | 0.186 | > 100 | > 100 | > 100 | – | 0.0353 | > 100 | > 100 | 0.0339 | 0.0171 | < 0.0159 | < 0.01 | 48.8 | 0.0456 | 0.0303 | < 0.01 | 0.0546 | 0.914 |
| O=C(c1ccc(Cl)cc1)c1ccc(OCCCCCCCCCCOc2ccc(C(=O)c3ccc(Cl)cc3)cc2)cc1 | > 100 | > 100 | > 100 | > 100 | > 100 | > 100 | > 100 | > 100 | > 100 | > 100 | – | – | – | – | – | – | – | – | – | – |
| COc1ccc(Nc2ncc(Br)c(NCCCNC(=O)C3CCC3)n2)cc1 | 45.8 | 85.4 | > 100 | > 100 | 42.1 | 8.56 | 89.4 | 55.7 | 62.7 | > 100 | 11 | 5.59 | 18.7 | 8.06 | 24.6 | 14 | 2.3 | 22.9 | 5.45 | 8.95 |
| COC(=O)C(C(=O)C(=O)Nc1ccc(C(F)(F)F)cc1[N+](=O)[O-])c1csc(-n2nc(-c3ccccc3)cc2-c2ccccc2)n1 (configuration not stated) | > 100 | > 100 | > 100 | > 100 | > 100 | > 100 | > 100 | > 100 | > 100 | > 100 | – | – | – | – | – | – | – | – | – | – |
| O=C1c2ccc([N+](=O)[O-])cc2-c2c1c1ccccc1c(=O)n2CCCNCCCNCCCn1c2c(c3ccc([N+](=O)[O-])cc3c1=O)C(=O)c1ccccc1-2 | 7.48 | 1.48 | 4.31 | 41.7 | 0.82 | 41 | 20.7 | 62.3 | 2.91 | 6.54 | 2.23 | 2.09 | 0.182 | 1.53 | 5.51 | 0.258 | 5.51 | 17.3 | 0.355 | 0.985 |
| CCOC(=O)/C(O)=C/c1cc(OC)cc(=O)o1 | > 100 | > 100 | > 100 | > 100 | > 100 | > 100 | > 100 | > 100 | > 100 | > 100 | – | – | – | – | – | – | – | – | – | – |
| Oc1cc(O)c(Oc2cccc(O)c2O)c(O)c1 | > 100 | > 100 | > 100 | > 100 | > 100 | > 100 | > 100 | > 100 | > 100 | > 100 | – | – | – | – | – | – | – | – | – | – |
| Oc1ccc(C(c2ccc(O)cc2)c2ccc(Cl)cn2)cc1 | 22 | > 100 | > 100 | > 100 | > 84.8 | 1.65 | 7.21 | 60.3 | 0.331 | > 100 | 0.403 | 3.56 | 4.97 | 0.463 | 24.6 | 21.1 | 0.0593 | 4.31 | 0.0408 | 19.1 |
| CCOC(=O)C1(Br)C(c2ccccc2)NC(=O)NC1(C)Br (configuration not stated) | 46.4 | > 100 | > 100 | > 100 | > 88.9 | > 100 | > 100 | > 100 | > 100 | > 66 | – | – | – | – | – | – | – | – | – | – |
| CCCCCCCNc1nc(C(=O)OCC)ncc1-c1ccc(C(F)(F)F)cc1 | 88.8 | > 100 | > 100 | > 100 | 66.9 | 71.1 | > 100 | 66.7 | > 100 | > 100 | 26.4 | 30.4 | 41.5 | 33.6 | 41.8 | 17.8 | 19 | 26.6 | 33.8 | 33.4 |
| O=[N+]([O-])c1ccc(S(=O)Cc2ccccc2)c([N+](=O)[O-])c1 (configuration not stated) | 5.2 | – | 29.4 | 3.26 | 4.46 | 2.78 | 26.9 | 22.3 | 33.1 | 27.6 | 13.2 | 2.21 | – | 15.6 | 1.62 | 1.89 | 1.45 | 8.54 | 11.6 | 14 |
| COc1ccccc1/C=C/[N+](=O)[O-] | 4.49 | 3.85 | 8.59 | 9.11 | 3.78 | 2.81 | 20.5 | 17.2 | 8.03 | 19 | 4.67 | 1.92 | 2.01 | 3.02 | 2.82 | 1.05 | 1.43 | 5.4 | 2.47 | 4.85 |
| C=C1SC(=Nc2c(C)cc(C)cc2C)N(C(=O)c2sc3ccccc3c2Cl)C12CCCCC2 | > 100 | > 100 | > 100 | > 100 | > 100 | > 100 | > 100 | > 100 | > 100 | > 100 | 42.3 | 16.5 | 58.5 | 54.6 | > 100 | 21.6 | > 100 | 61.6 | > 100 | > 100 |
